Results as given in ChEMBL document CHEMBL1144250, “3D QSAR studies on GSK-3 inhibition by aloisines” (Bioorg Med Chem Lett, 2005).

These compounds were tested against Glycogen synthase kinase-3 (Homo sapiens, UniProt P49840+P49841) (assay: Inhibitory concentration against Glycogen synthase kinase-3).
Assay type: protein assay

Row | SMILES | Log IC50
1 | c1ccc(-c2cc3[nH]ccnc-3n2)cc1 | -5.64
2 | Fc1ccc(-c2cc3[nH]ccnc-3n2)cc1 | -5.72
3 | Clc1ccc(-c2[nH]c3nccnc3c2CC2CCCCC2)cc1 | -5.1
4 | CCCCc1c(-c2ccc(Cl)cc2)[nH]c2nccnc12 | -5.23
5 | Cc1ccc(-c2cc3[nH]ccnc-3n2)cc1 | -5.59
6 | CCCc1c(-c2ccc(OC)cc2)[nH]c2nccnc12 | -6.4
7 | COc1ccc(-c2[nH]c3nccnc3c2C(C)C)cc1 | -6.3
8 | Clc1ccc(-c2[nH]c3nccnc3c2Cc2ccccc2)cc1 | -5.17
9 | COc1cc(-c2cc3[nH]ccnc-3n2)cc(OC)c1OC | -4.7
10 | COc1ccc(-c2[nH]c3nccnc3c2C)cc1OC | -5.7
11 | Oc1ccc(-c2[nH]c3nccnc3c2CC2CC2)cc1 | -5.52
12 | COc1ccc(-c2[nH]c3nccnc3c2CC2CC2)cc1 | -5.96
13 | CCCCCCCc1c(-c2ccc(OC)cc2)[nH]c2nccnc12 | -5
14 | C=CCc1c(-c2ccc(OC)cc2)[nH]c2nccnc12 | -6.22
15 | COc1ccc(-c2[nH]c3nccnc3c2CCCCl)cc1 | -5.6
16 | COc1cc(OC)cc(-c2cc3[nH]ccnc-3n2)c1 | -4.22
17 | COc1ccc(-c2cc3[nH]ccnc-3n2)cc1 | -5.96

Row | SMILES | Log IC50
18 | CCCc1c(-c2ccc(O)cc2)[nH]c2nccnc12 | -5.74
19 | FC(F)(F)c1ccc(-c2cc3[nH]ccnc-3n2)cc1 | -5.14
20 | Brc1ccc(-c2cc3[nH]ccnc-3n2)cc1 | -5.22
21 | CC(C)c1c(-c2ccc(Cl)cc2)[nH]c2nccnc12 | -6.12
22 | COc1ccc(-c2[nH]c3nccnc3c2C)cc1 | -6.34
23 | CN(C)c1ccc(-c2cc3[nH]ccnc-3n2)cc1 | -4.92
24 | c1ccc(Cc2c(-c3ccccc3)[nH]c3nccnc23)cc1 | -6
25 | Cc1c(-c2ccc(OS(=O)(=O)N(C)C)cc2)[nH]c2nccnc12 | -6.3
26 | Oc1ccccc1-c1cc2[nH]ccnc-2n1 | -5.19
27 | COc1ccccc1-c1cc2[nH]ccnc-2n1 | -5.48
28 | Cc1c(-c2ccc(O)cc2)[nH]c2nccnc12 | -6.28
29 | N#Cc1ccc(-c2cc3[nH]ccnc-3n2)cc1 | -5.32
30 | COc1ccc(-c2[nH]c3nccnc3c2CC2CCCCC2)cc1 | -5.17
31 | Cc1c(-c2ccc(Cl)cc2)[nH]c2nccnc12 | -5.77
32 | COc1cccc(-c2cc3[nH]ccnc-3n2)c1 | -5.5
33 | Oc1ccc(-c2cc3[nH]ccnc-3n2)cc1 | -5.92
34 | CCCCc1c(-c2ccc(OC)cc2)[nH]c2nccnc12 [ALOISINE] | -6.04
